From US20220106304A1, “Transcription Factor BRN2 Inhibitory Compounds as Therapeutics and Methods for Their Use” (The University of British Columbia, priority 2018, published 2022)

How the values were obtained:
[1] = test system: 42D^ENZR cells vs 16D^CRPC cells; assay: Cell proliferation specificity, 42D^ENZR cells vs 16D^CRPC cells; type: cell-based; settings: 42D cells express BRN2, 16D cells do not; some also LNCaP; result in words
Procedure: Plate 42DENZR (˜7000 cells per well) and 16D^CRPC (˜5000 cells per well) cells in 96 well plate with a volume of 100 μL per well. • 2. Next day 1 mL aliquots of media are combined with 3× the desired concentration of compounds. The aliquots are vortexed and 50 μL of each 3× concentration is added to the 100 μL of media in each well to give the ix desired concentration.
The following are the desired concentrations:
0, 10 nM, 100 nM, 500 nM, 1 μM, 2.5 μM, 5 μM, 10 μM, 15 μM, […], 30 μM. • 3. Approximately 72 hours later, 17 μL of 10% Glutaraldehyde is added to each well and plates are placed on a shaker for 20-30 minutes. • 4. Media is washed off the fixed cells by slow submersion in a container of water. Then the water is removed by tapping the plate upside down. • 5. 75 μL of Crystal Violet™ solution is added into the 96 well plates and placed on a shaker for ˜30 minutes. • 6. Media is washed off the fixed cells by repeated slow submersion in a container of water and the plates are allowed to dry over-night. • 7. Next day, 75 μL of Sorensen Solution is accurately pipetted into each well. The plates placed on a shaker for ˜30 minutes. • 8. Absorbance is measured in the plate at 590 nm.
Compounds that Show Specificity Towards 42D^ENZR Cells Vs 16D^CRPC Cells Progress to Step 4.
Where data is not available “na” is inserted.

BRN2 = target: T1, BRN2 (Homo sapiens, UniProt P20265); assay: Drug Affinity Responsive Target Stability (DARTS) assay; type: binding; parameters: endogenous in cells; host or cells: 42D^ENZR cells; settings: 42D^ENZR cell lysate, yes/no direct interaction with BRN2
T1 sequence (P20265 1-443): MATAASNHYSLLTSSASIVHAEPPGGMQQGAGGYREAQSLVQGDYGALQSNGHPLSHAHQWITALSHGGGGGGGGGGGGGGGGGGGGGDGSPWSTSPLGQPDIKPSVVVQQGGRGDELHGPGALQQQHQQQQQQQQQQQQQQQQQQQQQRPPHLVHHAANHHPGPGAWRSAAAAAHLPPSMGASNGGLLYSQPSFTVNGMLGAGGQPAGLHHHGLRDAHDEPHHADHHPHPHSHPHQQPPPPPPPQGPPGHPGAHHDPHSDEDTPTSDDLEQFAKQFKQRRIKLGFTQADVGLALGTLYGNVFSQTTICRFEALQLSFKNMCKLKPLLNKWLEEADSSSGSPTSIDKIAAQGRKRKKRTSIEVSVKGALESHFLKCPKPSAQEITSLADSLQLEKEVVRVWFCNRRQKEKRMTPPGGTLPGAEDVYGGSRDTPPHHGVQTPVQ
Procedure: This in cell assay provides a yes/no answer to direct interaction between BRN2 inhibitor and protein. • i) Prepare and place the following on ice: • Pronase • TNC 10× • −500 mM Tris-HCl (pH 8.0) • −500 mM NaCl, 100 mM CaCl2 • DMSO • Drug • 10 mL NP40+Protease inhibitor+Phosphatase inhibitor solution (can store in 4° C. and use for up to 4 weeks): • −2 mL NP40 5× • −8 mL ddH2O • −1 PhosphoSTOP™ pill • −200 uL protease inhibitor 50×
2) Remove the growth medium from the cell plate (42D^ENZR) and add 10 mL of cold PBS/vanadate.
3) Scrape the cells. Remove the PBS-cell solution and add in a falcon tube.
4) Name a new 1.5 ml Eppendorf tube and put on ice to pre-chill.
5) Centrifuge the cells at 1500 for 5 minutes at 4° C. Remove supernatant and re-suspend the cells in 600 uL NP40 lysis buffer by pipetting up and down. If the cell pellet is small use less volume, for example 300 μl)
6) Transfer the lysing cells into the pre-chilled Eppendorf tube. Incubate on ice for 20 minutes. If not continuing the DARTS on the same day, you can put the lysate in −30 and work on it later.
7) Centrifuge the tube at maximum speed for 25-30 minutes at 4° C.
8) Discard the pellet (either transfer the supernatant in a new tube or just take out the pellet). […]
20) The samples are ready for Western blot gel running. […]

Structure (SMILES) | specificity [1] | DARTS binding (BRN2)
FC(F)(F)c1ccc2cc(-c3csc(-c4ccco4)n3)oc2c1 [VPC-18-51, 2-(Furan-2-yl)-4-(6-(trifluoromethyl)benzofuran-2-yl)thiazole] | specific 42D not 16D | binding
Clc1cc2cc(-c3csc(-c4ccc[nH]4)n3)oc2cc1Cl [VPC-18-142] | not 16D | binding
